Results on two compounds are retold here after the NIST ThermoML archive (doi:10.1016/j.tca.2009.03.004).

± gives the expanded uncertainty stated by the source.

The nature of data set [1]: Molar enthalpy of transition or fusion. As to conditions: DSC.
The conditions of data set [2]: DTA.

Take `CCCCCCCCOc1ccc(C=Nc2ccc(OCC)cc2)cc1` [4-ethoxy-N-[[4-(octyloxy)phenyl]methylene]benzenamine]: the results for the “Molar enthalpy of transition or fusion” value in data set [1] (Crystal) and in data set [1] (Nematic liquid crystal) were 9.66 ± 0.263 kcal/mol and 0.268 ± 0.0311 kcal/mol, respectively. For the same compound, the Triple point temperature in data set [2] (Crystal) came out at 373.95 ± 0.5 K; in data set [2] (Nematic liquid crystal), 395.55 ± 0.5 K.

In the case of `CCCCCCCCOc1ccc(C=Nc2ccc(OCCCC)cc2)cc1` [benzenamine, 4-butoxy-N-[[4-(octyloxy)phenyl]methylene]-], the “Molar enthalpy of transition or fusion” value in data set [1] (Crystal) was 10.6 ± 0.287 kcal/mol; in data set [1] (Nematic liquid crystal) it was 0.43 ± 0.0359 kcal/mol. The Triple point temperature is given as 380.75 ± 0.5 K in data set [2] (Crystal) and 389.55 ± 0.5 K in data set [2] (Nematic liquid crystal).
